The supplement of paper PMC6045584
± gives the standard deviation of the averaged measurements.

Key:
[1] = compound: C[C@@H](Oc1cc(-c2cnn(C3CCNCC3)c2)cnc1N)c1c(Cl)ccc(F)c1Cl; experiment: surviving fraction relative to DMSO-only wells; higher = less growth inhibition; details: exposure time: 5 days
Method in brief: (§1)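 Viability was scored with CellTiter-Glo luminescence and normalised to the median of DMSO-only wells as surviving fraction. Beforehand, log-phase tumour cell lines were seeded at 250–500 cells per well in 384-well plates, allowed 24 hours, and exposed continuously for five days to inhibitors at 0.5, 1, 5, 10, 50, 100, 500 and 1000 nM. Only lines whose three screens gave replicate Pearson r >0.7 and median Z' >0.3 were kept.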

SORAFENIB = compound: CNC(=O)c1cc(Oc2ccc(NC(=O)Nc3ccc(Cl)c(C(F)(F)F)c3)cc2)ccn1 [SORAFENIB]; experiment: as above; details: exposure time: 5 days
Method in brief: as §1

Row | Test System | surviving fraction ([1]; 0.5 nM) | surviving fraction ([1]; 1 nM) | surviving fraction ([1]; 10 nM) | surviving fraction ([1]; 50 nM) | surviving fraction ([1]; 100 nM) | surviving fraction ([1]; 500 nM) | surviving fraction ([1]; 1000 nM) | surviving fraction (SORAFENIB; 0.5 nM) | surviving fraction (SORAFENIB; 1 nM) | surviving fraction (SORAFENIB; 5 nM) | surviving fraction (SORAFENIB; 10 nM) | surviving fraction (SORAFENIB; 50 nM) | surviving fraction (SORAFENIB; 100 nM) | surviving fraction (SORAFENIB; 500 nM) | surviving fraction (SORAFENIB; 1000 nM) | surviving fraction ([1]; 5 nM)
1 | MFM223 BREAST | 0.7 ± 0.052 | 0.747 ± 0.044 | 0.751 ± 0.042 | 1.05 ± 0.14 | 0.934 ± 0.019 | 0.985 ± 0.064 | 0.836 ± 0.096 | 1.18 ± 0.021 | 1.16 ± 0.048 | 1.23 ± 0.08 | 1.15 ± 0.047 | 1.23 ± 0.13 | 1.14 ± 0.081 | 1.06 ± 0.13 | 0.742 ± 0.08 | 
2 | MG63 BONE | 0.898 ± 0.011 | 0.912 ± 0.016 |  | 0.91 ± 0.029 | 0.827 ± 0.023 | 0.711 ± 0.02 | 0.607 ± 0.004 | 0.996 ± 0.025 | 1 ± 0.018 | 1.044 ± 0.01 | 1.015 ± 0.0067 | 1.13 ± 0.014 | 1.13 ± 0.031 | 1.1 ± 0.025 | 1.12 ± 0.012 | 
3 | MHM BONE | 0.982 ± 0.041 | 0.991 ± 0.02 | 0.993 ± 0.023 |  | 0.977 ± 0.011 | 0.905 ± 0.018 | 0.817 ± 0.012 | 0.977 ± 0.025 | 1.01 ± 0.024 |  | 1.06 ± 0.051 | 1.071 ± 0.0061 | 1.08 ± 0.024 | 1.1 ± 0.034 |  | 0.991 ± 0.023
4 | NCIH441 LUNG | 0.999 ± 0.039 | 0.982 ± 0.03 | 0.998 ± 0.068 | 0.996 ± 0.046 | 0.885 ± 0.026 | 0.885 ± 0.11 | 0.652 ± 0.079 | 1.12 ± 0.014 | 1.07 ± 0.028 | 1.12 ± 0.12 | 0.967 ± 0.042 | 0.992 ± 0.023 | 0.99 ± 0.12 | 0.927 ± 0.04 | 0.834 ± 0.016 | 0.956 ± 0.045
5 | NOS1 BONE | 0.889 ± 0.05 | 0.856 ± 0.046 | 0.929 ± 0.1 | 1.17 ± 0.06 | 0.988 ± 0.04 | 0.742 ± 0.055 | 0.401 ± 0.026 | 1.04 ± 0.11 |  | 1.12 ± 0.17 | 0.997 ± 0.058 | 0.995 ± 0.053 | 0.874 ± 0.056 | 0.684 ± 0.0075 | 0.613 ± 0.062 | 
6 | NY BONE | 0.948 ± 0.02 | 0.9253 ± 0.0076 | 0.9633 ± 0.0086 | 0.9303 ± 0.0083 | 0.885 ± 0.022 | 0.701 ± 0.03 | 0.524 ± 0.018 | 1.01 ± 0.019 | 0.975 ± 0.033 | 1.04 ± 0.035 | 1.01 ± 0.027 | 1.08 ± 0.036 | 1.07 ± 0.044 | 1.02 ± 0.013 | 1.034 ± 0.0083 | 0.959 ± 0.0089
7 | OS25HAL BONE | 0.913 ± 0.013 |  | 0.9 ± 0.014 | 0.969 ± 0.017 | 0.937 ± 0.016 | 0.813 ± 0.1 | 0.285 ± 0.043 | 0.99 ± 0.023 | 0.984 ± 0.0092 | 1.03 ± 0.035 |  | 1.06 ± 0.018 | 1.01 ± 0.049 | 0.855 ± 0.077 | 0.645 ± 0.056 | 0.92 ± 0.015
8 | OSHN BONE | 0.908 ± 0.013 | 0.9047 ± 0.0064 | 0.9 ± 0.01 | 0.992 ± 0.023 | 0.971 ± 0.018 | 0.868 ± 0.013 | 0.189 ± 0.029 | 1.06 ± 0.024 | 1.047 ± 0.0099 | 1.07 ± 0.018 | 1.05 ± 0.015 | 1.09 ± 0.037 | 1.06 ± 0.014 | 1.08 ± 0.025 | 1.05 ± 0.013 | 0.91 ± 0.0079
9 | PCI30 HEADNECK | 0.959 ± 0.036 |  |  | 1.06 ± 0.076 | 1.11 ± 0.046 | 0.679 ± 0.039 | 0.513 ± 0.016 | 1.04 ± 0.038 |  | 1.02 ± 0.045 | 1.04 ± 0.06 | 1.06 ± 0.098 | 1.11 ± 0.096 | 1.11 ± 0.059 | 1.12 ± 0.013 | 1.07 ± 0.058
10 | RDES SOFT TISSUE | 0.735 ± 0.13 | 0.716 ± 0.093 | 0.69 ± 0.075 | 1.02 ± 0.19 | 0.926 ± 0.17 | 1.26 ± 0.02 | 0.127 ± 0.023 | 1.24 ± 0.085 | 1.12 ± 0.098 | 1.18 ± 0.1 | 0.918 ± 0.1 | 1.15 ± 0.058 | 1.24 ± 0.066 | 1.18 ± 0.13 | 1.09 ± 0.1 | 0.832 ± 0.028
11 | S68 BREAST | 0.733 ± 0.09 | 0.819 ± 0.31 | 0.838 ± 0.19 |  | 0.847 ± 0.16 | 0.567 ± 0.19 | 0.398 ± 0.084 |  | 0.963 ± 0.22 | 1.06 ± 0.083 | 1.13 ± 0.18 | 1.29 ± 0.099 | 1.12 ± 0.27 | 1.02 ± 0.079 | 0.895 ± 0.32 | 
12 | SAOS2 BONE | 0.7737 ± 0.0011 | 0.866 ± 0.018 | 0.874 ± 0.036 | 1.06 ± 0.08 | 0.971 ± 0.046 | 0.319 ± 0.012 | 0.164 ± 0.012 | 0.935 ± 0.028 | 1.019 ± 0.0098 | 1.072 ± 0.0081 | 1.04 ± 0.064 | 1.17 ± 0.017 | 1.237 ± 0.0023 | 1.196 ± 0.01 | 1.07 ± 0.079 | 
13 | SCC003 HEADNECK | 0.763 ± 0.099 |  | 0.818 ± 0.03 | 1.04 ± 0.047 | 0.982 ± 0.047 | 0.672 ± 0.081 | 0.417 ± 0.025 | 0.898 ± 0.11 | 1.05 ± 0.12 |  |  | 1.12 ± 0.18 | 1.11 ± 0.081 | 1.24 ± 0.097 |  | 0.835 ± 0.042
14 | SCC36 HEADNECK | 0.784 ± 0.039 | 0.784 ± 0.07 | 0.742 ± 0.071 | 0.913 ± 0.021 |  | 0.403 ± 0.022 | 0.255 ± 0.011 |  | 1.02 ± 0.064 | 1.15 ± 0.11 | 1.18 ± 0.018 | 1.18 ± 0.16 | 1.17 ± 0.056 | 1.2 ± 0.049 | 1.18 ± 0.065 | 0.742 ± 0.077
15 | SCC47 HEADNECK | 0.909 ± 0.012 | 0.9017 ± 0.0072 | 0.924 ± 0.037 | 1.06 ± 0.031 | 0.96 ± 0.066 | 0.721 ± 0.017 | 0.472 ± 0.024 | 1.04 ± 0.067 | 0.998 ± 0.071 | 1.08 ± 0.029 | 0.974 ± 0.067 | 1 ± 0.053 | 1.01 ± 0.068 | 0.907 ± 0.065 | 0.825 ± 0.028 | 0.988 ± 0.018
16 | SCC90 HEADNECK |  | 0.913 ± 0.028 |  | 1.12 ± 0.098 | 1.17 ± 0.13 | 0.717 ± 0.028 |  | 1.16 ± 0.083 | 1.23 ± 0.13 | 1.37 ± 0.12 | 1.3 ± 0.097 |  | 0.797 ± 0.076 | 1.01 ± 0.083 | 1.12 ± 0.069 | 0.934 ± 0.045
17 | SG27 HEADNECK | 1.01 ± 0.016 |  | 0.893 ± 0.07 | 1 ± 0.089 | 0.92 ± 0.045 |  | 0.668 ± 0.053 | 1.04 ± 0.056 | 1.01 ± 0.059 | 1.18 ± 0.041 | 1.13 ± 0.074 | 1.03 ± 0.04 | 1.22 ± 0.1 | 1.27 ± 0.045 | 1.3 ± 0.051 | 
18 | SG28 HEADNECK |  | 0.918 ± 0.053 |  | 1 ± 0.042 | 1.07 ± 0.098 |  | 0.764 ± 0.12 | 1.17 ± 0.13 |  | 1.18 ± 0.1 | 1.22 ± 0.18 | 1.21 ± 0.066 | 1.27 ± 0.1 | 1.44 ± 0.19 | 1.32 ± 0.14 | 0.85 ± 0.067
19 | SG31 HEADNECK |  | 0.821 ± 0.04 | 0.843 ± 0.18 | 0.847 ± 0.063 | 0.845 ± 0.088 | 0.755 ± 0.061 | 0.485 ± 0.07 | 1.03 ± 0.11 | 1.1 ± 0.11 | 1.09 ± 0.092 | 1.08 ± 0.15 | 1.2 ± 0.31 | 1.07 ± 0.092 | 1.4 ± 0.22 | 1.22 ± 0.13 | 0.821 ± 0.059
20 | SG32 HEADNECK | 0.809 ± 0.17 | 0.907 ± 0.093 | 0.799 ± 0.11 | 0.955 ± 0.15 |  | 0.475 ± 0.06 | 0.359 ± 0.092 | 1.2 ± 0.15 | 1.47 ± 0.68 | 1.33 ± 0.044 | 1.42 ± 0.35 | 1.76 ± 0.68 | 1.62 ± 0.26 | 1.53 ± 0.35 | 1.56 ± 0.36 | 0.931 ± 0.15
21 | SG43 HEADNECK | 1.14 ± 0.1 | 1.22 ± 0.16 | 1.09 ± 0.22 | 0.946 ± 0.37 | 0.816 ± 0.13 | 0.564 ± 0.14 | 0.256 ± 0.082 | 0.959 ± 0.085 | 1.19 ± 0.13 |  | 0.97 ± 0.082 | 1.18 ± 0.14 | 1.4 ± 0.095 | 1.98 ± 0.15 | 2.18 ± 0.21 | 
22 | SIHA CERVIX | 0.92 ± 0.038 | 0.931 ± 0.01 | 0.931 ± 0.034 | 0.99 ± 0.011 | 1.07 ± 0.068 | 0.676 ± 0.042 | 0.628 ± 0.075 | 1.04 ± 0.085 | 1.16 ± 0.11 | 1.089 ± 0.01 | 1.13 ± 0.077 |  | 1.15 ± 0.043 | 1.17 ± 0.16 | 1.17 ± 0.15 | 
23 | SJSA1 BONE | 0.881 ± 0.019 | 0.9053 ± 0.0031 | 0.935 ± 0.023 | 1.06 ± 0.069 | 1.05 ± 0.05 | 0.889 ± 0.053 | 0.622 ± 0.0085 | 1.02 ± 0.012 | 0.969 ± 0.036 | 0.985 ± 0.048 |  | 1.07 ± 0.041 | 1.03 ± 0.041 | 1 ± 0.11 | 0.967 ± 0.026 | 0.912 ± 0.062
